Assay results as given in US20150105252A1, “SUBSTITUTED PYRAZOLES AS HERBICIDES” (E I DU PONT DE NEMOURS AND COMPANY, priority 2013, published 2015).

Experiments:
[1] = tested on: chickweed; assay: Test C postemergence; format: in vivo, Stellaria media; details: for Plant response rating (scale of 0 to 100 where 0 is no effect and 100 is complete control), Chickweed: Postemergence, 31 g ai/ha, visually evaluated after 13 to 15 days; for Chickweed plant response rating / Plant response rating, Chickweed: postemergence; for Chickweed plant response rating: 62 g ai/ha, scale 0 to 100
Method in brief: (§1)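 Visual rating, 0–100 scale (0 no effect, 100 complete control), vs untreated controls after 13–15 d greenhouse. Pre: seeds in loam/sand, treated at sowing. Post: plants in peat-based mix, 1- to 4-leaf (2–18 cm). Solvent + surfactant formulation, non-phytotoxic.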

[2] = tested on: galium; assay: Test C preemergence; format: in vivo, Galium aparine; details: preemergence; for Plant response rating, Galium: 125 g ai/ha, scale 0 to 100, 0 = no effect, 100 = complete control
Method in brief: as §1

[3] = tested on: pigweed; assay: Test C postemergence; format: in vivo, Amaranthus retroflexus; details: for Pigweed plant response rating / Plant response rating, Pigweed: postemergence; for Pigweed plant response rating: 62 g ai/ha, scale 0 to 100
Method in brief: as §1

[4] = tested on: foxtail, giant; assay: Test A preemergence; format: in vivo, Setaria faberii; details: preemergence
Method in brief: (§2)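 Seeds were sown in a loam soil–sand blend and given a directed soil spray preemergence; postemergence plants at 2–10 cm, one- to two-leaf stage, were sprayed with compound in non-phytotoxic solvent with surfactant. After about 10 days in a greenhouse, injury was visually rated against untreated controls (0 = no effect, 100 = complete control).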

[5] = tested on: oilseed rape; assay: Test C postemergence; format: in vivo, Brassica napus; details: for Oilseed Rape plant response rating / Plant response rating, Oilseed Rape: postemergence; for Oilseed Rape plant response rating: 62 g ai/ha, scale 0 to 100
Method in brief: as §1

[6] = tested on: velvetleaf; assay: Test C postemergence; format: in vivo, Abutilon theophrasti; details: for Velvetleaf plant response rating / Plant response rating, Velvetleaf: postemergence; for Velvetleaf plant response rating: scale 0 to 100
Method in brief: as §1

[7] = tested on: barnyardgrass; assay: Test A postemergence; format: in vivo, Echinochloa crus-galli
Method in brief: as §2

[8] = tested on: barnyardgrass; assay: Test C postemergence; format: in vivo, Echinochloa crus-galli; details: for Plant response rating (scale of 0 to 100 where 0 is no effect and 100 is complete control), Barnyardgrass: Postemergence, 31 g ai/ha, visually evaluated after 13 to 15 days; for Barnyardgrass plant response rating / Plant response rating, Barnyardgrass: postemergence; for Barnyardgrass plant response rating: 62 g ai/ha, scale 0 to 100
Method in brief: as §1

[9] = tested on: corn; assay: Test A postemergence; format: in vivo, Zea mays
Method in brief: as §2

[10] = tested on: lambsquarters; assay: Test C postemergence; format: in vivo, Chenopodium album; details: for Plant response rating (scale of 0 to 100 where 0 is no effect and 100 is complete control), Lambsquarters: Postemergence, 31 g ai/ha, visually evaluated after 13 to 15 days; for Lambsquarters plant response rating / Plant response rating, Lambsquarters: postemergence; for Lambsquarters plant response rating: 62 g ai/ha, scale 0 to 100
Method in brief: as §1

[11] = tested on: morningglory; assay: Test C postemergence; format: in vivo, Ipomoea coccinea; details: for Plant response rating (scale of 0 to 100 where 0 is no effect and 100 is complete control), Morningglory: Postemergence, 31 g ai/ha, visually evaluated after 13 to 15 days; for Morningglory plant response rating / Plant response rating, Morningglory: postemergence; for Morningglory plant response rating: 62 g ai/ha, scale 0 to 100
Method in brief: as §1

[12] = tested on: oat, wild; assay: Test C postemergence; format: in vivo, Avena fatua; details: for Plant response rating (scale of 0 to 100 where 0 is no effect and 100 is complete control), Oat, Wild: Postemergence, 31 g ai/ha, visually evaluated after 13 to 15 days; for Oat, Wild plant response rating / Plant response rating, Oat, Wild: postemergence; for Oat, Wild plant response rating: 62 g ai/ha, scale 0 to 100
Method in brief: as §1

[13] = tested on: barnyardgrass; assay: Test C preemergence; format: in vivo, Echinochloa crus-galli; details: preemergence; for Plant response rating, Barnyardgrass: 125 g ai/ha, scale 0 to 100, 0 = no effect, 100 = complete control
Method in brief: as §1

[14] = 250 g ai/ha, scale 0 to 100 (0 no effect, 100 complete control)
[15] = 125 g ai/ha, scale 0 to 100, 0 no effect, 100 complete control
[16] = 31 g ai/ha, visual rating, scale 0 to 100 (0 no effect, 100 complete control), 13 to 15 days
[17] = 62 g ai/ha, scale 0 to 100 (0 no effect, 100 complete control), 13 to 15 days
[18] = 250 g ai/ha, scale 0 to 100, 0 is no effect, 100 is complete control
[19] = Postemergence, 31 g ai/ha, visually evaluated after 13 to 15 days
[20] = 500 g ai/ha, visual injury after approx. 10 days, 0 to 100 scale (0 no effect, 100 complete control)
[21] = Postemergence, 500 g ai/ha, 0 to 100 scale (0 no effect, 100 complete control)
[22] = postemergence, 125 g ai/ha, about 10 days, visual rating on 0 to 100 scale (0 no effect, 100 complete control)

CCCNC(=O)c1cc(OCC)n(Cc2ccnc(OC(F)F)c2)n1 [Compound 136]
Plant response rating (scale of 0 to 100 where 0 is no effect and 100 is complete control), Chickweed [1]: 100 | Chickweed plant response rating [1]: 100 | Plant response rating, Chickweed [1, 14]: 100 | Plant response rating, Chickweed [1, 15]: 100 | Galium plant response rating [2, 16]: 85 | Galium plant response rating [2, 17]: 100 | Plant response rating, Galium ([2]; 13 to 15 days): 100 | Galium plant response rating [2, 18]: 100 | Plant response rating (scale of 0 to 100 where 0 is no effect and 100 is complete control), Pigweed [3, 19]: 40 | Pigweed plant response rating [3]: 65 | Plant response rating, Pigweed [3, 14]: 80 | Plant response rating, Pigweed [3, 15]: 70 | Foxtail, Giant plant response rating ([4]; 125 g ai/ha, visual injury, 0 to 100 scale, approx. 10 days): 100 | Foxtail, Giant plant response rating [4, 20]: 100 | Plant response rating (scale of 0 to 100 where 0 is no effect and 100 is complete control), Oilseed Rape [5, 19]: 60 | Oilseed Rape plant response rating [5]: 60 | Plant response rating, Oilseed Rape [5, 14]: 85 | Plant response rating, Oilseed Rape [5, 15]: 70 | Plant response rating (scale of 0 to 100 where 0 is no effect and 100 is complete control), Velvetleaf [6, 19]: 30 | Velvetleaf plant response rating ([6]; 62 g ai/ha): 55 | Plant response rating, Velvetleaf [6, 14]: 85 | Plant response rating, Velvetleaf [6, 15]: 60 | Barnyardgrass plant response rating [7, 21]: 90 | Barnyardgrass plant response rating [7, 22]: 70 | Plant response rating (scale of 0 to 100 where 0 is no effect and 100 is complete control), Barnyardgrass [8]: 5 | Barnyardgrass plant response rating [8]: 5 | Plant response rating, Barnyardgrass [8, 14]: 45 | Plant response rating, Barnyardgrass [8, 15]: 5 | Corn plant response rating [9, 21]: 100 | Corn plant response rating [9, 22]: 60 | Plant response rating (scale of 0 to 100 where 0 is no effect and 100 is complete control), Lambsquarters [10]: 80 | Lambsquarters plant response rating [10]: 85 | Plant response rating, Lambsquarters [10, 14]: 95 | Plant response rating, Lambsquarters [10, 15]: 98 | Plant response rating (scale of 0 to 100 where 0 is no effect and 100 is complete control), Morningglory [11]: 90 | Morningglory plant response rating [11]: 98 | Plant response rating, Morningglory [11, 14]: 100 | Plant response rating, Morningglory [11, 15]: 95 | Plant response rating (scale of 0 to 100 where 0 is no effect and 100 is complete control), Oat, Wild [12]: 5 | Oat, Wild plant response rating [12]: 5 | Plant response rating, Oat, Wild [12, 14]: 45 | Plant response rating, Oat, Wild [12, 15]: 10 | Barnyardgrass plant response rating ([13]; 31 g ai/ha, scale 0 to 100 (0 no effect, 100 complete control), 13 to 15 days): 75 | Barnyardgrass plant response rating [13, 17]: 100 | Plant response rating, Barnyardgrass ([13]; 13 to 15 days): 100 | Barnyardgrass plant response rating [13, 18]: 100

CCCc1cc(C(=O)NC2CC2)nn1Cc1ccnc(OC(F)F)c1 [Compound 205]
Plant response rating (scale of 0 to 100 where 0 is no effect and 100 is complete control), Chickweed [1]: 65 | Chickweed plant response rating [1]: 90 | Plant response rating, Chickweed [1, 14]: 100 | Plant response rating, Chickweed [1, 15]: 98 | Galium plant response rating [2, 16]: 100 | Galium plant response rating [2, 17]: 90 | Plant response rating, Galium ([2]; 13 to 15 days): 95 | Galium plant response rating [2, 18]: 100 | Pigweed plant response rating [3]: 85 | Plant response rating, Pigweed [3, 14]: 100 | Plant response rating, Pigweed [3, 15]: 85 | Foxtail, Giant plant response rating (0 to 100 scale) ([4]; 125 g ai/ha, visual injury approx. 10 days after treatment): 100 | Foxtail, Giant plant response rating [4, 20]: 100 | Oilseed Rape plant response rating [5]: 25 | Plant response rating, Oilseed Rape [5, 14]: 50 | Plant response rating, Oilseed Rape [5, 15]: 50 | Plant response rating, Velvetleaf [6, 14]: 40 | Velvetleaf plant response rating [6]: 40 | Barnyardgrass plant response rating [7, 21]: 90 | Barnyardgrass plant response rating [7, 22]: 80 | Plant response rating (scale of 0 to 100 where 0 is no effect and 100 is complete control), Barnyardgrass [8]: 10 | Barnyardgrass plant response rating [8]: 10 | Plant response rating, Barnyardgrass [8, 14]: 50 | Plant response rating, Barnyardgrass [8, 15]: 15 | Corn plant response rating [9, 21]: 100 | Corn plant response rating [9, 22]: 70 | Plant response rating (scale of 0 to 100 where 0 is no effect and 100 is complete control), Lambsquarters [10]: 85 | Lambsquarters plant response rating [10]: 85 | Plant response rating, Lambsquarters [10, 14]: 85 | Plant response rating, Lambsquarters [10, 15]: 90 | Plant response rating (scale of 0 to 100 where 0 is no effect and 100 is complete control), Morningglory [11]: 65 | Morningglory plant response rating [11]: 70 | Plant response rating, Morningglory [11, 14]: 95 | Plant response rating, Morningglory [11, 15]: 80 | Plant response rating (scale of 0 to 100 where 0 is no effect and 100 is complete control), Oat, Wild [12]: 5 | Oat, Wild plant response rating [12]: 5 | Plant response rating, Oat, Wild [12, 14]: 10 | Plant response rating, Oat, Wild [12, 15]: 5 | Barnyardgrass plant response rating [13, 16]: 85 | Barnyardgrass plant response rating [13, 17]: 98 | Plant response rating, Barnyardgrass ([13]; 13 to 15 days): 100 | Barnyardgrass plant response rating [13, 18]: 100
